Measurements: PMC5014630 (Molecular pharmaceutics, 2016)

Columns and labels:
iPSC-derived BMECs [1] = assay: Temperature dependence of permeability; type: in vitro ADME, human; conditions: normalized to 37°C condition; Student's t-test
iPSC-derived BMECs [2] = assay: Directional; type: in vitro ADME, human; conditions: normalized to AB permeability; Student's t-test
BCRP = target: T1, BCRP (Homo sapiens, UniProt Q9UNQ0); assay: Permeability with BCRP inhibitor Ko143 in iPSC-derived BMEC; type: in vitro ADME; conditions: 1 μM Ko143, 60 min pre-incubation; normalized to no inhibitor
T1 sequence (Q9UNQ0 1-655): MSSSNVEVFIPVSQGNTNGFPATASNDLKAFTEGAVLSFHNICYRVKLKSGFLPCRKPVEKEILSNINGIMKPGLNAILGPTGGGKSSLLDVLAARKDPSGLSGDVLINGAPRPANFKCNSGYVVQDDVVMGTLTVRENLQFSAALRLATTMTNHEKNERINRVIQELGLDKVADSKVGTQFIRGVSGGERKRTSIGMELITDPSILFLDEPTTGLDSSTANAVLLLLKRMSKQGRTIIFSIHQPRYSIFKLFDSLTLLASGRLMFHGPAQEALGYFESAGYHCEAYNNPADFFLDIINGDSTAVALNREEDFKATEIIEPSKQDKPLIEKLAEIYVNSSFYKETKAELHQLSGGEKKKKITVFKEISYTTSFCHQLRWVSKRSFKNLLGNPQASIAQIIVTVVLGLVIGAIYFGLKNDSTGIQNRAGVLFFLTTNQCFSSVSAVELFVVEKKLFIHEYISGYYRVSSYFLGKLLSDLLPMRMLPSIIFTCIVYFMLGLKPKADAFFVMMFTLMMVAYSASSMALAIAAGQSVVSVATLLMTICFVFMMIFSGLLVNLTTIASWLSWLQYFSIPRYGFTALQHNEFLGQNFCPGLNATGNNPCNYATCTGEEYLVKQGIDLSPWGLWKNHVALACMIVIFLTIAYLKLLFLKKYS

MRPs = assay: Permeability with pan-MRP inhibitor MK571 in iPSC-derived BMEC; type: in vitro ADME, human; conditions: 10 μM MK571, 60 min pre-incubation; normalized to no inhibitor
P-gp = P-gp (Homo sapiens, UniProt P08183); assay: Permeability with P-gp inhibitor PSC833 in iPSC-derived BMEC; type: in vitro ADME; conditions: 1 μM PSC833, 60 min pre-incubation; normalized to no inhibitor
[3] = Permeability across iPSC-derived BMEC Transwell in vitro BBB model; conditions: human
[4] = Experimental octanol/water LogD; type: physicochemical; conditions: pH 7.4, octanol:buffer
iPSC-derived BMECs [5] = assay: Permeability across iPSC-derived BMEC Transwell in vitro BBB model; conditions: for permeability (Pe) across iPSC-BMEC: Transwell, APC analogs 1 μM in PM20, 2 hours, mean±S.E., n≥3

Sequence of P-gp (P08183 whole entry): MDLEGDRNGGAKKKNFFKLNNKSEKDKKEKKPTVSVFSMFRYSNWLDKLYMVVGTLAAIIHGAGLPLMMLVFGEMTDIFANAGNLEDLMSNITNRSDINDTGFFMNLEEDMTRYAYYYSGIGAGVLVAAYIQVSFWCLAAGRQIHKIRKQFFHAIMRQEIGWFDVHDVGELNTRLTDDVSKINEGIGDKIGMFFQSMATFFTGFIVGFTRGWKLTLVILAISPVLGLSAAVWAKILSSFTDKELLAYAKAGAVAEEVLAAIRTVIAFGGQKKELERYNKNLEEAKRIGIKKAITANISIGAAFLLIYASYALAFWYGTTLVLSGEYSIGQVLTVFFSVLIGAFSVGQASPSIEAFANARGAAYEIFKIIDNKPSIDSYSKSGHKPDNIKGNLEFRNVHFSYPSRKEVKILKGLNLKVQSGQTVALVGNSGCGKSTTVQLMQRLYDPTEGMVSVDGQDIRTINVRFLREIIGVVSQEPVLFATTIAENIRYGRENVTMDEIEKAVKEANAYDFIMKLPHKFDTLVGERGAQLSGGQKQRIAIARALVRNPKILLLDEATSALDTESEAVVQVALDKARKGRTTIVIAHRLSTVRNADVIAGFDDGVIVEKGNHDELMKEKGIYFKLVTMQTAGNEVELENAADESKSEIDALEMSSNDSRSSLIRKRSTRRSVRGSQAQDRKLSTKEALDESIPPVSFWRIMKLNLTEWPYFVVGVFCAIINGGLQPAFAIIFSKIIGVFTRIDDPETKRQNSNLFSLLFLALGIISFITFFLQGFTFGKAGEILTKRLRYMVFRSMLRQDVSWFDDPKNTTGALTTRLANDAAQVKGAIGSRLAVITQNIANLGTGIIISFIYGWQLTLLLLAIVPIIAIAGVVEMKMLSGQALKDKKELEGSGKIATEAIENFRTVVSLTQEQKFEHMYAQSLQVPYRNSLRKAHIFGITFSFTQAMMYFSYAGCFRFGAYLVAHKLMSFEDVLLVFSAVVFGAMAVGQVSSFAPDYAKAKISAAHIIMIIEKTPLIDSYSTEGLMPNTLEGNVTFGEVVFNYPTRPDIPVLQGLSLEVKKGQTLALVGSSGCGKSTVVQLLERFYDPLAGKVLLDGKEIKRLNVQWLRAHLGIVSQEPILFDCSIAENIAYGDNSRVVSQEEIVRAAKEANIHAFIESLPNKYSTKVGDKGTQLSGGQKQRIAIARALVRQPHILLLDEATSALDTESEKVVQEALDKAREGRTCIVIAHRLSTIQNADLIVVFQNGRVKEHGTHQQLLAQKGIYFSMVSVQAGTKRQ

SMILES	in vitro BBB permeability at 4°C compared to 37°C (iPSC-derived BMECs [1])	polarized flux, basolateral-apical (BA) vs apical-basolateral (AB) (iPSC-derived BMECs [2])	permeability change with Ko143 (BCRP inhibition) (BCRP)	permeability change with MK571 (MRP inhibition) (MRPs)	permeability change with PSC833 (P-gp inhibition) (P-gp)	Papp at 2 h, 1 μM [3] [×10⁻⁶ cm/s]	fold increase of experimental LogD compared to parent CLR1404 [4]	permeability (Pe) across iPSC-BMEC (iPSC-derived BMECs [5])	fold reduced permeability compared with CLR1501 (iPSC-derived BMECs [5]; iPSC-derived BMEC Transwell, p<0.05) [fold]
C[N+](C)(C)CCOP(=O)([O-])OCCCCCCCCCCCCCCCCCCc1ccc(I)cc1 [CLR1404, 18-(p-iodophenyl) octadecylphosphocholine]	slight, but statistically insignificant, increase	no significant evidence of polarized efflux	did not affect	did not affect	did not affect	5.83			
C[N+](C)(C)CCOP(=O)([O-])OCCCCCCCCCCCCCCCCCCc1ccc(C2=C3C=CC=[N+]3[B-](F)(F)n3cccc32)cc1 [CLR1501]	significantly higher	significantly polarized flux in the brain-to-blood (BA) direction	selectively increased	selectively increased			greater than 2 fold	54±3.2 ×10^−5 cm/min	
CN1/C(=C/C=C2\CCCC(/C=C/C3=[N+](C)c4ccccc4C3(C)C)=C2c2ccc(CCCCCCCCCCCCCCCCCCOP(=O)([O-])OCC[N+](C)(C)C)cc2)C(C)(C)c2ccccc21.[Cl-] [CLR1502]	significantly higher	significantly polarized flux in the brain-to-blood (BA) direction	A similar pattern was observed	A similar pattern was observed			greater than 2 fold	26±4.9 ×10^−5 cm/min	2
